Reference: patent publication US9920035B2, “Heterocyclic compounds, medicaments containing said compounds, use thereof and processes for the preparation thereof” (Boehringer Ingelheim International GmbH, priority 2011, dated 2018)

Molecular target: T1, epithelial sodium channel (ENaC) (Mus musculus, UniProt Q61180+Q9WU38+Q9WU39)
T1 construct: Mouse kidney M-1 cells were cultivated in DMEM containing 5% FCS and 5 μM dexamethasone; endogenous in cells; host or cells: mouse kidney M-1 cells
T1 sequence (Q61180 1-699): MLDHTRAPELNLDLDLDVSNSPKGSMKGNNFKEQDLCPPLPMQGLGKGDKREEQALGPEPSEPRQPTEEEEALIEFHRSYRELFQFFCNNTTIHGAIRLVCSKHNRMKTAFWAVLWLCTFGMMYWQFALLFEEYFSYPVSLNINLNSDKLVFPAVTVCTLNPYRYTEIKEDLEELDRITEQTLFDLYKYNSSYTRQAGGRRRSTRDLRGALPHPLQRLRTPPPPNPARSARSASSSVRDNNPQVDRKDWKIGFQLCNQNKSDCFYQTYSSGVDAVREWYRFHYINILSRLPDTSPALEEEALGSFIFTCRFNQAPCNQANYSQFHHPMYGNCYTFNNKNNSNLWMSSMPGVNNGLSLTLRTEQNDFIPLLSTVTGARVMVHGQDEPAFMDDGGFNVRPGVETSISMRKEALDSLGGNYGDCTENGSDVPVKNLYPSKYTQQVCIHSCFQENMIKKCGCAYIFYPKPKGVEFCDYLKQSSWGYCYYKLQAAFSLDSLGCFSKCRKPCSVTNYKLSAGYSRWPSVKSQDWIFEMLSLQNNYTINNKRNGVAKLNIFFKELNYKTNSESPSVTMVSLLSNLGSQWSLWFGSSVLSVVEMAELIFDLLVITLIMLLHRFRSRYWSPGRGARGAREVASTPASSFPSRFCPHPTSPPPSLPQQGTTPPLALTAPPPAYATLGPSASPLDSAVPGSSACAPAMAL
T1 sequence (Q9WU38 1-638): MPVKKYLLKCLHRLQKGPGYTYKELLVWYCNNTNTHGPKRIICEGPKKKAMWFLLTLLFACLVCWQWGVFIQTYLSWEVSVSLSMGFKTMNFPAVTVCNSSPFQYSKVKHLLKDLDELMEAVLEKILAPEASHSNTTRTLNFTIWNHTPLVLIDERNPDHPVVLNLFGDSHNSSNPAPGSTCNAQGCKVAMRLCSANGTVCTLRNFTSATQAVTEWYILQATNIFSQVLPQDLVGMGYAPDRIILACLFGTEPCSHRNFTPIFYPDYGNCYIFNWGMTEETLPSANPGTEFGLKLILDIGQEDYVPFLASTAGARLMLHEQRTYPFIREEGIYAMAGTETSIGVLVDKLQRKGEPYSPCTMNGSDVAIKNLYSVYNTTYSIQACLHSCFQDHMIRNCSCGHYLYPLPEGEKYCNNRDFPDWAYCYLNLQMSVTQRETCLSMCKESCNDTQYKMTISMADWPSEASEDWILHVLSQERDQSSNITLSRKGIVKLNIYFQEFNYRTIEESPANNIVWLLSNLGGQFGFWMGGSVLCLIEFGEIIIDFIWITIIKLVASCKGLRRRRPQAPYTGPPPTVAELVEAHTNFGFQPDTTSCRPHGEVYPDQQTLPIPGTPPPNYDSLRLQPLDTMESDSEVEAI
T1 sequence (Q9WU39 1-655): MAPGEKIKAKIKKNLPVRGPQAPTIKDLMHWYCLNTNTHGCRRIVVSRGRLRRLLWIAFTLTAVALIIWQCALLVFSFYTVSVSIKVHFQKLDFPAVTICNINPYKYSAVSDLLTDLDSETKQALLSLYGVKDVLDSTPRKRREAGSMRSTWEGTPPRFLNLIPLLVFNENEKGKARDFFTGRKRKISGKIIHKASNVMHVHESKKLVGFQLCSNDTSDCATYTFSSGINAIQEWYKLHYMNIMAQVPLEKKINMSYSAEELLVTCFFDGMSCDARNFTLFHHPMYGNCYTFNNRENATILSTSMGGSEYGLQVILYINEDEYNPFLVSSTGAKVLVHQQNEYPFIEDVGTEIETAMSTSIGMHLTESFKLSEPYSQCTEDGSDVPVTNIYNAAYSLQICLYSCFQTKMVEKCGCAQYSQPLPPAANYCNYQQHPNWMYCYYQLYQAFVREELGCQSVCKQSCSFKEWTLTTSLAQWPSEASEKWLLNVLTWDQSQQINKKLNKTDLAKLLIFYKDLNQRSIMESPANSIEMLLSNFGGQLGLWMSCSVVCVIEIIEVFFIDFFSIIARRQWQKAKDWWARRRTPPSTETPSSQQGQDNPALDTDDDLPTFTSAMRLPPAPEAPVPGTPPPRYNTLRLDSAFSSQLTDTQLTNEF
Assay: Ussing chamber: inhibition of amiloride sensitive short circuit current (I_sc) in M-1 cells
Format: cell-based
Conditions: Mouse kidney M-1 cells on transwell filters, Ussing chamber at 37° C., compound added to the apical solution
Protocol: Mouse kidney M-1 cells were cultivated in DMEM containing 5% FCS and 5 μM dexamethasone for 10 to 12 days on polyester transwell filters. Filters were inserted into a teflon-coated well-plate which fit into the in-house ussing chamber system. Prior to measurement the medium of M-1 cells was replaced with Caco-2 transport buffer (Invitrogen, Germany). During measurements, the Ussing chamber temperature was kept at 37° C. Short circuit currents (I_sc) were measured in the voltage-clamp mode using an in-house built amplifier (Boehringer Ingelheim, Biberach) with the software package Lab View for data acquisition and analysis. The transepithelial electrical resistance (TEER) was determined by the application of voltage steps of ±5 mV every 5 sec. Compounds were administered at a final concentration of 3 μM or at increasing concentrations (1-3-10 μM) to the apical solution. At the end of each experiment the amiloride sensitive I_SC was measured by adding 3 μM amiloride to the apical compartment. Results are expressed as inhibition in percent of the amiloride effect or as IC50. Results are listed in tables 1 to 5 and further examples listed above.

IC50 [nM]	Compound
2	COC(=O)CN1CCC(CCc2ccccc2)(CNC(N)=NC(=O)c2nc(Cl)c(N)nc2N)CC1 [Example 1.16, {4-[N′-(3,5-diamino-6-chloro-pyrazine-2-carbonyl)guanidinomethyl]-4-phenethyl-piperidin-1-yl}-acetic acid methyl ester]
15	C[N+](C)(C)CCCC(=O)N1CCC(CCc2ccccc2)(CNC(N)=NC(=O)c2nc(Cl)c(N)nc2N)CC1 [Example 1.50]
27	C[N+](C)(C)CCCNC(=O)N1CCC(CCc2ccccc2)(CNC(N)=NC(=O)c2nc(Cl)c(N)nc2N)CC1 [Example 5.1]
10.1	NC(=NC(=O)c1nc(Cl)c(N)nc1N)NCC1(CCc2ccccc2)CCN(C(=O)NCC(=O)O)CC1 [Example 3.3]
40	NC(=NC(=O)c1nc(Cl)c(N)nc1N)NCC1(CCc2ccccc2)CCN(Cc2ccccc2)CC1 [Example 1.6]
20	COC(=O)CCC(=O)N1CCC(CCc2ccccc2)(CNC(N)=NC(=O)c2nc(Cl)c(N)nc2N)CC1 [Example 1.14]
34	CS(=O)(=O)N1CCC(CCc2ccccc2)(CNC(N)=NC(=O)c2nc(Cl)c(N)nc2N)CC1 [Example 1.1]
120	NCCCN1CCC(CNC(N)=NC(=O)c2nc(Cl)c(N)nc2N)(Cc2ccccc2)CC1 [Example 2.14]
93	NCCC(=O)N1CCC(CNC(N)=NC(=O)c2nc(Cl)c(N)nc2N)(Cc2ccccc2)CC1 [Example 2.9]
56	COC(=O)c1ccc(CCC2(CNC(N)=NC(=O)c3nc(Cl)c(N)nc3N)CCN(C(=O)OC(C)(C)C)CC2)cc1 [Example 1.17]
25	CC(C)(C)OC(=O)N1CCC(CNC(N)=NC(=O)c2nc(Cl)c(N)nc2N)(c2ccccc2)CC1 [Example 1.42]
200	COc1ccccc1C1(CNC(N)=NC(=O)c2nc(Cl)c(N)nc2N)CCNCC1 [Example 2.10]
149	NC(=NC(=O)c1nc(Cl)c(N)nc1N)NCC1(CCc2ccccc2)CCN(C(=O)NCCC(=O)O)CC1 [Example 3.2]
19	CC(C)(C)OC(=O)NCCCCC(=O)N1CCC(CNC(N)=NC(=O)c2nc(Cl)c(N)nc2N)(Cc2ccccc2)CC1 [Example 1.26]
86	CN(C)CCCN1CCC(CCc2ccccc2)(CNC(N)=NC(=O)c2nc(Cl)c(N)nc2N)CC1 [Example 1.29]
17	CC(C)CC(=O)N1CCC(CCc2ccccc2)(CNC(N)=NC(=O)c2nc(Cl)c(N)nc2N)CC1 [Example 1.11]
32	COC(=O)CCC(=O)N1CCC(CCc2ccccc2)(CN/C(N)=N/C(=O)c2nc(Br)c(N)nc2N)CC1 [Example 10, 4-{4-[N′-(3,5-Diamino-6-bromo-pyrazine-2-carbonyl)-guanidinomethyl]-4-phenethyl-piperidin-1-yl}-4-oxo-butyric acid methyl ester]
23	NCCCCC(=O)N1CCC(CCc2ccccc2)(CNC(N)=NC(=O)c2nc(Cl)c(N)nc2N)CC1 [Example 2.3]
42	CN(C)CCCNC(=O)N1CCC(CNC(N)=NC(=O)c2nc(Cl)c(N)nc2N)(Cc2ccccc2)CC1 [Example 1.38]
27	NC(=O)N1CCC(CCc2ccccc2)(CNC(N)=NC(=O)c2nc(Cl)c(N)nc2N)CC1 [Example 1.4]
11	COCC(=O)N1CCC(CCc2ccccc2)(CNC(N)=NC(=O)c2nc(Cl)c(N)nc2N)CC1 [Example 1.9]
8	CC(C)NC(=O)N1CCC(CCc2ccccc2)(CNC(N)=NC(=O)c2nc(Cl)c(N)nc2N)CC1 [Example 1.2]
28	COC(=O)CNC(=O)N1CCC(CCc2ccccc2)(CNC(N)=NC(=O)c2nc(Cl)c(N)nc2N)CC1 [Example 1.18]
74	COC(=O)c1ccc(CCC2(CNC(N)=NC(=O)c3nc(Cl)c(N)nc3N)CCN(C(=O)NCC[N+](C)(C)C)CC2)cc1 [Example 5.2]
34	NC(=NC(=O)c1nc(Cl)c(N)nc1N)NCC1(CCc2ccccc2)CCN(C(=O)c2ccccc2)CC1 [Example 1.5]
18	CC(C)(C)OC(=O)NCC(=O)N1CCC(CCc2ccccc2)(CNC(N)=NC(=O)c2nc(Cl)c(N)nc2N)CC1 [Example 1.25]
